Like-named read-outs stand apart in the source and are kept apart here.
What was measured:
[1] = target: CYP2C19 (Homo sapiens, UniProt P33261); experiment: Direct CYP inhibition assay using pooled HLM; settings: pooled HLM
Procedure: (§1) The enzyme reactions were initiated by adding NADPH (1 mM), and the mixtures were incubated at 37 °C for 5 min in a shaking water bath (100 rpm). The reaction was terminated by adding ice-cold acetonitrile (ACN) containing CBZ (100 nM) and 4-methyl-umbelliferone (300 nM) as internal standards (IS).
(§2) The chromatographic separation was performed on an Agilent 1200 series HPLC system (Agilent Technologies, Santa Clara, CA, USA) equipped with an Atlantis^TM dC18 column (2.1 × 50 mm, 3 µm; Waters Corporation, Milford, MA, USA) with a SecuityGuard^TM C18 guard column (2.0 × 4.0 mm; Phenomenex, Torrance, CA, USA). The mobile phases consisted of double-deionized water (DDW) containing 0.1% (v/v) of formic acid (A) and ACN containing 0.1% (v/v) formic acid (B). […] The sample injection volume was 10 µL, and the total run time was 9.0 min. The column and auto-sampler compartments were maintained at 30 °C and 10 °C, respectively, throughout the analysis. The detection was performed using an API4000 Q-TRAP system equipped with a Turbo V Ion Spray^TM source (Applied Biosystems, Foster City, CA, USA). The operating conditions were optimized as follows: ionization voltage: 5500 V for positive-ion mode and −4500 V for negative-ion mode; ion source temperature: 550 °C; nebulizing gas flow: 50 L/min; auxiliary gas flow: 40 L/min; and curtain gas flow: 30 L/min. The samples were analyzed via multiple reaction monitoring (MRM) mode. […] The data acquisition and processing were performed using Analyst^TM software (version 1.5.2; Applied Biosystems, Foster City, CA, USA).

[2] = target: T1, CYP2D6 (Homo sapiens, UniProt P10635); experiment: Metabolism-dependent CYP2D6 inhibition assay (IC50 shift) using pooled HLM; settings: pooled HLM; for MDI (metabolism-dependent inhibition) of CYP2D6 (in words): pre-incubation with NADPH
Procedure: Pre-incubation was performed in pooled HLM (0.2 mg/mL) added with BBR, THB, TFD, or DMB, or rhCYP2D6 (10 pmol/mL) added with BBR, with or without NADPH (1 mM) in phosphate buffer (0.1 M; pH 7.4) for 30 min. Then, the CYP2D6 substrate (5 µM of dextromethorphan) and NADPH (1 mM) were added to the mixture and incubated for another 10 min. All incubations were carried out at 37 °C in a shaking water bath (100 rpm) using eight-well tube strips placed in an 8 × 12 rack, where the final volume of each reaction mixture was 200 µL. […] The enzyme reactions were quenched by adding an aliquot (200 µL) of ice-cold ACN containing CBZ (100 nM) as an IS. The samples were centrifuged, and the concentration of CYP2D6 metabolite (i.e., dextrorphan, produced by O-demethylation of dextromethorphan) in supernatants were analyzed using the LC-MS/MS method described in Section 2.2.

[3] = target: CYP3A4 (Homo sapiens, UniProt P08684); experiment: Direct CYP inhibition assay using pooled HLM
Sequence of CYP3A4 (P08684 whole entry): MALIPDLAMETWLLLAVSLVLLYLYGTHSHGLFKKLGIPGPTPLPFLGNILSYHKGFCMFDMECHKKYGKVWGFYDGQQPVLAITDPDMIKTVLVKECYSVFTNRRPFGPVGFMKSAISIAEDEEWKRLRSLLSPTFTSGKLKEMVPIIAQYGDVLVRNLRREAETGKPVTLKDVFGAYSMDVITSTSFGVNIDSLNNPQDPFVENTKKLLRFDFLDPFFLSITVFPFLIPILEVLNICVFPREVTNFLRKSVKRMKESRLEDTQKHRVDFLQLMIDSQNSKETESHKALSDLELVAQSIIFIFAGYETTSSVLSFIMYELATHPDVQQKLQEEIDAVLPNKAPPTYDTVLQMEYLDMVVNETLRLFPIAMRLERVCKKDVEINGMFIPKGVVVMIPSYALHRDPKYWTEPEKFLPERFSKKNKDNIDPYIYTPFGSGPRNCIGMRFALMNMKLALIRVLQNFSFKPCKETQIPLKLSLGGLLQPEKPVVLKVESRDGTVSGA
Procedure: as §1, §2

[4] = target: T2, CYP2A6 (Homo sapiens, UniProt P11509); experiment: Direct CYP inhibition assay using pooled HLM; settings: pooled HLM
T2 sequence (P11509 1-494): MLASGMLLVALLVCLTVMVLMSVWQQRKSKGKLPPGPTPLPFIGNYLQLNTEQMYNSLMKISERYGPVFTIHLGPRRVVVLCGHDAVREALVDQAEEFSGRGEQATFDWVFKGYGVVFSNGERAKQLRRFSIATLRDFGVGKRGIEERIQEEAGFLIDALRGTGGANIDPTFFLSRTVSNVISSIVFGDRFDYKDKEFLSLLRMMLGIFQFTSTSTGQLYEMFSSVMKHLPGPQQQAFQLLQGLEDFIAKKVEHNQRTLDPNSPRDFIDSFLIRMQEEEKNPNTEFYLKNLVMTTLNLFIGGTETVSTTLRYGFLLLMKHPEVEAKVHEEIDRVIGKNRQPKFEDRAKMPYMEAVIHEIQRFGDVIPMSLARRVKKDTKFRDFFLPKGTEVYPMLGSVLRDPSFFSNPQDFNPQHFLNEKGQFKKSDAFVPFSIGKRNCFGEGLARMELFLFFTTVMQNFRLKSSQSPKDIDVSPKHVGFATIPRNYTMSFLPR
Procedure: as §1, §2

[5] = target: CYP2C9 (Homo sapiens, UniProt P11712); experiment: Direct CYP inhibition assay using pooled HLM; settings: pooled HLM
Sequence of CYP2C9 (P11712 whole entry): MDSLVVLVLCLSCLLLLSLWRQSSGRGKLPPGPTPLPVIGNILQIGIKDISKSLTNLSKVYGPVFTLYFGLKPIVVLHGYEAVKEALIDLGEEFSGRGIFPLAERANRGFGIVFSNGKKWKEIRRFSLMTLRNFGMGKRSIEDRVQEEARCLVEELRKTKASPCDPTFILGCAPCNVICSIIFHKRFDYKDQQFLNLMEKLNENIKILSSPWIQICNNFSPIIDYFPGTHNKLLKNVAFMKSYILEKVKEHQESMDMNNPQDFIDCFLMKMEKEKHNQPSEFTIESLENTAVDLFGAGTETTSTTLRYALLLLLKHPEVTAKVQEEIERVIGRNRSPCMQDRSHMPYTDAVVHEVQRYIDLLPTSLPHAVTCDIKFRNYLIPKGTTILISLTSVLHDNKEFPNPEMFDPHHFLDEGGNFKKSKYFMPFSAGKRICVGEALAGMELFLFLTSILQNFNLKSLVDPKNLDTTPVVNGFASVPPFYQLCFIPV
Procedure: as §1, §2

[6] = Metabolic stability and metabolite formation of BBR in pooled HLM; settings: for Concentration in incubation mixture (elimination of BBR and formation of its metabolites): BBR 1 µM in pooled HLM with NADPH-generating system, mean ± SD
Procedure: To evaluate NADPH-dependent metabolism, BBR (1 µM) was incubated with pooled HLM (1 mg/mL) in the presence of the NADPH-regenerating system (1 mM of NADP^+, 5 mM of G6P, and 1 U/mL of G6PDH) to be a final volume of 200 µL. The reactions were quenched by adding the same volume of ice-cold ACN containing CBZ (100 nM) at 0, 7.5, 15, 30, 60, and 120 min of incubation. The incubation mixtures were centrifuged at 1000× g for 20 min at 4 °C, and the supernatants were analyzed by the LC-MS/MS system described in Section 2.2.
Meanwhile, to identify the known metabolites of BBR, an aliquot (5 µL) of the supernatant was injected into an accurate-MS system consisting of an Agilent 6530 Q-TOF LC/MS equipped with dual AJS ESI ion source (Agilent Technologies) and Agilent 1200 series HPLC system (Agilent Technologies). Chromatographic separations were performed on an Agilent Eclipse Plus C18 column (150 × 2.1 mm, 3.5 µm; Agilent Technologies) by gradient elution with a binary mobile phase consisting of DDW with 0.1% (v/v) formic acid (A) and ACN with 0.1% (v/v) formic acid (B) at a flow rate of 0.2 mL/min, where the mobile phase B was set as follows: 2% at 0 min, 20% at 15 min, and 30% at 20–25 min, followed by re-equilibration for 3 min.
In vitro metabolic stability parameters, including half-life (t1/2) and microsomal intrinsic clearance (CLint,mic), were determined according to our previous report [32]. The degradation t1/2 values of the microsomal stability studies were calculated using the following Equation (2):(2) t1/2=0.693/k, where k represents the first-order degradation rate constant. The k values were estimated by fitting a one-phase exponential decay model to the parent drug remaining (%) vs. incubation time plots using GraphPad Prism 5.0 (GraphPad Software Inc., San Diego, CA, USA).
The CLint,mic was determined using the in vitro half-life approach.

[7] = target: T1, CYP2D6; experiment: Direct CYP inhibition assay using pooled HLM
Procedure: as §1, §2

[8] = target: T3, CYP2C8 (Homo sapiens, UniProt P10632); experiment: Direct CYP inhibition assay using pooled HLM; settings: pooled HLM
T3 sequence (P10632 1-490): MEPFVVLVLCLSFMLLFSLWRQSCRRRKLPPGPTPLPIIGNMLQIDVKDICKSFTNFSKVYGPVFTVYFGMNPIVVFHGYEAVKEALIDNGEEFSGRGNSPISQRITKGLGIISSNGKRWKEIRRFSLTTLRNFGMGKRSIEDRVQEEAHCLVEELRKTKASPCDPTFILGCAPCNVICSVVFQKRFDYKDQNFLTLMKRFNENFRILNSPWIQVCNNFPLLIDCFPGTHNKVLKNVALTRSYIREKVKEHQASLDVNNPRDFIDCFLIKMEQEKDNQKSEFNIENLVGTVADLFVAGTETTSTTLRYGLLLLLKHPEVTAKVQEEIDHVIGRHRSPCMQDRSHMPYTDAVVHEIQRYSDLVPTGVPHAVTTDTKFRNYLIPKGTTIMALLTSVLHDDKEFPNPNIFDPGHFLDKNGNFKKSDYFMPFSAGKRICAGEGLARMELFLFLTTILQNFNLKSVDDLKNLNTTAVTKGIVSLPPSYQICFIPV
Procedure: as §1, §2

[9] = target: T4, CYP1A2 (Homo sapiens, UniProt P05177); experiment: Direct CYP inhibition assay using pooled HLM; settings: pooled HLM
T4 sequence (P05177 1-516): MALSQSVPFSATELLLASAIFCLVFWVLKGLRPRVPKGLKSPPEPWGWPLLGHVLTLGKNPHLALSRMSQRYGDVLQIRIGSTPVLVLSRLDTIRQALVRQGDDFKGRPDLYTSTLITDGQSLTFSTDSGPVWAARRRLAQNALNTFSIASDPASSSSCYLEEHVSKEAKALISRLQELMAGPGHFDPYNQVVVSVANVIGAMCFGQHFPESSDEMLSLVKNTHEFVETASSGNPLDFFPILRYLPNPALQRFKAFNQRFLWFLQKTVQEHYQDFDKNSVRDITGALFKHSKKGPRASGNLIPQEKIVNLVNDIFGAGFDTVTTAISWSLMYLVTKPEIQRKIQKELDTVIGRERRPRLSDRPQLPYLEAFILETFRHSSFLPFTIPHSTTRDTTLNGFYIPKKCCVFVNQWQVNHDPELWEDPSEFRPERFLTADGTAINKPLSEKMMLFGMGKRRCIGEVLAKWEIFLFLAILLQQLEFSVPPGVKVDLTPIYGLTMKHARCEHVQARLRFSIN
Procedure: as §1, §2

[10] = target: T5, CYP2B6 (Homo sapiens, UniProt P20813); experiment: Direct CYP inhibition assay using pooled HLM; settings: pooled HLM
T5 sequence (P20813 1-491): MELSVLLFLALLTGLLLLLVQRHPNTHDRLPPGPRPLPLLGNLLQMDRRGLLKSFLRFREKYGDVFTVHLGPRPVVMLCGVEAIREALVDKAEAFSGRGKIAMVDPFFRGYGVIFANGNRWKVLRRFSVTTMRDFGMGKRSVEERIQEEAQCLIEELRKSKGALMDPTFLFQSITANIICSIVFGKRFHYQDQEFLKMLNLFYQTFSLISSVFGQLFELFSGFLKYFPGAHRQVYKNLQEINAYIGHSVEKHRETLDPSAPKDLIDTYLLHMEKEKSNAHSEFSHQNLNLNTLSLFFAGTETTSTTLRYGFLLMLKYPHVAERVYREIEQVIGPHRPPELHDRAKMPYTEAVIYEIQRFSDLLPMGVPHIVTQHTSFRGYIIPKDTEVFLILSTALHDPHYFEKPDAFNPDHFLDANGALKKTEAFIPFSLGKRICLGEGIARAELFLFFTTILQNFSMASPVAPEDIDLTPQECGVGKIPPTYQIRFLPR
Procedure: as §1, §2

[11] = target: CYP2E1 (Homo sapiens, UniProt P05181); experiment: Direct CYP inhibition assay using pooled HLM; settings: pooled HLM
Sequence of CYP2E1 (P05181 whole entry): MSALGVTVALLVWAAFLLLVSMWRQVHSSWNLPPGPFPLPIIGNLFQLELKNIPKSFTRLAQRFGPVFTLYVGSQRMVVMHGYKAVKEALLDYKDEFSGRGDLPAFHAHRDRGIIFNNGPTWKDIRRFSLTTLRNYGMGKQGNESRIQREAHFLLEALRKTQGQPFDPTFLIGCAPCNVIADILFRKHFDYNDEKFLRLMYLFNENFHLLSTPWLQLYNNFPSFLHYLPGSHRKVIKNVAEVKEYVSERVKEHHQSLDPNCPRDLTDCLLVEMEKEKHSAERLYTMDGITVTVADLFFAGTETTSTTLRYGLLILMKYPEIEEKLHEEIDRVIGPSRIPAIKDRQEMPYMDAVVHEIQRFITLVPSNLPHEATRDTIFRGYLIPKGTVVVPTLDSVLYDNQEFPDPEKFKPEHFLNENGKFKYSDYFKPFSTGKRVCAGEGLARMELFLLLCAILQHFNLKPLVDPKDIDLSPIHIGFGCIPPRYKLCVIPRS
Procedure: as §1, §2

[12] = target: T1, CYP2D6; parameters: method as in PMID 25145883; settings: HLM; previous study; cited from earlier work
[13] = human, pooled human liver microsomes

T1 sequence (P10635 whole entry): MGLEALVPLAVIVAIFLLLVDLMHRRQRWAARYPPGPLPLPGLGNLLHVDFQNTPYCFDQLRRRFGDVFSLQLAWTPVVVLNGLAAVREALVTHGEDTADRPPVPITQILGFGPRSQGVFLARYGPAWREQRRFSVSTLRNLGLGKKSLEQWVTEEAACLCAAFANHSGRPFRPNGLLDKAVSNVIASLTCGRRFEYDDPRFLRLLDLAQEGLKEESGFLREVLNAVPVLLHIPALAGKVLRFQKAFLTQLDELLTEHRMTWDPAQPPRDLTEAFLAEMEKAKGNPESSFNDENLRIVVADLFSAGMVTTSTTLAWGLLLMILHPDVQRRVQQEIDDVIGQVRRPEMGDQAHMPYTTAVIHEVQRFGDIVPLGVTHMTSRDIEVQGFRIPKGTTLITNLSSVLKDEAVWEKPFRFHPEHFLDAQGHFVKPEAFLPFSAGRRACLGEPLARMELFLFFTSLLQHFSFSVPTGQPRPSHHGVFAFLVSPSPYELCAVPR
Sequence of CYP2C19 (P33261 whole entry): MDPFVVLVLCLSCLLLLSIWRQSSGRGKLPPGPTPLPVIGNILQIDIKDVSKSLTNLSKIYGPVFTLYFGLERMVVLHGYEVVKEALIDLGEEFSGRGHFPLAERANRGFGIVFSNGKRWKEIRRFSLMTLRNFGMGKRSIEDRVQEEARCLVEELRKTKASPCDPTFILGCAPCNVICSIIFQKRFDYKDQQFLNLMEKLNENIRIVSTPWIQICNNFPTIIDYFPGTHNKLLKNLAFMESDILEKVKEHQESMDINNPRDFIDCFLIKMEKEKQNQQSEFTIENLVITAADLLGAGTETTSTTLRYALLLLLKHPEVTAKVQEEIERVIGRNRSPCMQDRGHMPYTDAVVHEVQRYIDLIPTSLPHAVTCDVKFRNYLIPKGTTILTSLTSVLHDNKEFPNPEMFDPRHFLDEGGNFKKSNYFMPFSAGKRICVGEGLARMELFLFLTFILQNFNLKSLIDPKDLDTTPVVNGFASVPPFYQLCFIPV

COc1ccc2cc3[n+](cc2c1OC)CCc1cc(O)c(O)cc1-3 [DMB, demethyleneberberine]
IC50 ([1]; read-out: IC50 CYP2C19, direct inhibition, 95% confidence intervals in parentheses): > 100 µM | MDI (metabolism-dependent inhibition) of CYP2D6 (in words) [2]: not | IC50 ([2]; read-out: IC50 against CYP2D6, pre-incubation with NADPH, 30 min pre-incubation with NADPH): 54.9 µM | IC50 ([2]; read-out: IC50 against CYP2D6, pre-incubation without NADPH, 30 min pre-incubation without NADPH): 34.7 µM | IC50 ([3]; read-out: IC50 CYP3A4 (MDZ), direct inhibition, substrate MDZ, 95% confidence intervals in parentheses): 66 µM | IC50 ([3]; read-out: IC50 CYP3A4 (TST), direct inhibition, substrate TST, 95% confidence intervals in parentheses): 7.3 µM | IC50 ([4]; read-out: IC50 CYP2A6, direct inhibition, 95% confidence intervals in parentheses): > 100 µM | IC50 ([5]; read-out: IC50 CYP2C9, direct inhibition, 95% confidence intervals in parentheses): > 100 µM | Concentration in incubation mixture (elimination of BBR and formation of its metabolites) ([6]; 0 min): 0.0061 ± 0.0001 µM | Concentration in incubation mixture (elimination of BBR and formation of its metabolites) ([6]; 7.5 min): 0.0241 ± 0.0003 µM | Concentration in incubation mixture (elimination of BBR and formation of its metabolites) ([6]; 15 min): 0.0381 ± 0.0005 µM | Concentration in incubation mixture (elimination of BBR and formation of its metabolites) ([6]; 30 min): 0.0526 ± 0.0019 µM | Concentration in incubation mixture (elimination of BBR and formation of its metabolites) ([6]; 60 min): 0.0643 ± 0.0016 µM | Concentration in incubation mixture (elimination of BBR and formation of its metabolites) ([6]; 120 min): 0.075 ± 0.001 µM | IC50 ([7]; read-out: IC50 CYP2D6, pooled HLM, direct inhibition, substrate dextromethorphan, 95% confidence intervals in parentheses): 32 µM | IC50 ([8]; read-out: IC50 CYP2C8, direct inhibition, 95% confidence intervals in parentheses): > 100 µM | IC50 ([9]; read-out: IC50 CYP1A2, direct inhibition, 95% confidence intervals in parentheses): > 100 µM | IC50 ([10]; read-out: IC50 CYP2B6, direct inhibition, 95% confidence intervals in parentheses): > 100 µM | IC50 ([11]; read-out: IC50 CYP2E1, direct inhibition, 95% confidence intervals in parentheses): 7.7 µM

COc1ccc2cc3[n+](cc2c1OC)CCc1cc2c(cc1-3)OCO2 [BBR, berberine]
Inhibition of CYP2C19 (in words) ([1]; up to 100 µM): not markedly inhibited | IC50 ([2]; IC50 against CYP2D6, pre-incubation with NADPH, 30 min pre-incubation with NADPH): 1.66 µM | IC50 ([2]; IC50 against CYP2D6, pre-incubation without NADPH, 30 min pre-incubation without NADPH): 12.4 µM | MDI (metabolism-dependent inhibition) of CYP2D6 (in words) [2]: exhibited MDI | Inhibition of CYP3A4 (in words) ([3]; up to 100 µM, substrates MDZ and TST): not markedly inhibited | Inhibition of CYP2A6 (in words) ([4]; up to 100 µM): not markedly inhibited | Inhibition of CYP2C9 (in words) ([5]; up to 100 µM): not markedly inhibited | Concentration in incubation mixture (elimination of BBR and formation of its metabolites) ([6]; 0 min): 1.049 ± 0.016 µM | Concentration in incubation mixture (elimination of BBR and formation of its metabolites) ([6]; 7.5 min): 0.807 ± 0.011 µM | Concentration in incubation mixture (elimination of BBR and formation of its metabolites) ([6]; 15 min): 0.713 ± 0.012 µM | Concentration in incubation mixture (elimination of BBR and formation of its metabolites) ([6]; 30 min): 0.539 ± 0.004 µM | Concentration in incubation mixture (elimination of BBR and formation of its metabolites) ([6]; 60 min): 0.313 ± 0.015 µM | Concentration in incubation mixture (elimination of BBR and formation of its metabolites) ([6]; 120 min): 0.147 ± 0.005 µM | half-life at 1 µM [6, 13]: 35.4 min | microsomal CLint at 1 µM [6, 13]: 7.82 µL/min/mg | Metabolic stability in HLM (in words) ([6]; pooled HLM): moderately stable | IC50 [7]: 11.9 µM | IC50 [12]: ~23.5 µM | Inhibition of CYP2C8 (in words) ([8]; up to 100 µM): not markedly inhibited | Inhibition of CYP1A2 (in words) ([9]; up to 100 µM): not markedly inhibited | Inhibition of CYP2B6 (in words) ([10]; up to 100 µM): not markedly inhibited | Inhibition of CYP2E1 (in words) ([11]; up to 100 µM): not markedly inhibited
